This is an account of results in US20220339135A1, “COMPOSITIONS AND METHODS FOR MODULATING AN INFLAMMATORY RESPONSE” (Enzychem Lifesciences Corporation, priority 2019, published 2022).

A short description of data set [1]: Whole-body autoradiography after single oral [14C] PLAG. The class given is in vivo, rats. Particulars: 200 mg/kg oral. As for the experimental part: Tissue distribution of the PLAG after single oral administration of [^14C] PLAG was conducted in Biotoxtech (Korea) using whole-body autoradiography. Crl:CD (SD) strain albino rats received the single oral administration of [^14C] PLAG at a dose of 200 mg/kg and the animals were sacrificed by CO2 asphyxiation at defined times, and whole body autoradiograms were prepared to investigate the tissue distribution of radioactivity and its time course. Sampling time points are 15 minutes, 1 hour, 8 hours, and 24 hours after administration. The carcass was sliced into 40 micro meter-thick coronal plane sections that were collected on adhesive tape (NA-70, Nakagawa). The freeze-dried sections covered with a protective membrane were placed in contact with imaging plate (BAS-SR2025, Fuji Photo Film) and the plates were exposed in lead-sealed boxes at room temperature for 24 hours. After exposure, the radioactivity recorded on the imaging plate was analyzed using a bio-imaging analyzer system.

Data set [2] concerns P2Y6 receptor on THP-1 cells. The data set can be described thus: MSU-induced P2Y6 receptor trafficking. The class given is cell-based, human. As for the experimental part:
THP-1 cells were divided into two groups: 1) MSU treated group and 2) MSU/PLAG treated group. For MSU treated group, THP-1 cells were stimulated with monosodium urate (MSU) crystal (400 μg/ml) for 0, 10, 20, 30, 40, 50, 60 minutes. For MSU/PLAG treated group, THP-1 cells were pre-incubated with PLAG (100 μg/ml) for an hour and then stimulated with monosodium urate (MSU) crystal (400 μg/ml) for 0, 10, 20, 30, 40, 50, 60 minutes. Then, cells were harvested. (A) To detect for the P2Y6 receptor on the membrane surface, cells were fixed with 4% paraformaldehyde (Sigma-Aldrich) and incubated with PBS containing 1% BSA for blocking. They were labeled with the rabbit anti-P2Y6 receptor antibody (1:200, APR-011, Alomone Labs, Jerusalem, Israel) for 1 h. The detection Ab was used with Alexa Flour 488 goat anti-rabbit IgG (Invitrogen). (B) To detect lysosomal activity, THP-1 cells were stained with Texas red conjugated-LYSO-ID® Lysosomal Detection Kit (Enzo Life Sciences, Inc.). Finally, cells were washed with 1% FBS/PBS and mounted with DAPI-containing fluorescence microscopy mounting medium (Invitrogen). Confocal samples were analyzed with a laser scanning confocal microscope (Carl Zeiss, Oberkochen, Germany). For flow cytometric analysis, cells were washed and analyzed with a FACSVerse flow cytometer (BD Biosciences). FlowJo software (Tree Star, OR, USA) was used data processing.
The specific siRNA of CD36 (sc-29995) and control siRNA (sc-37007) were purchased from Santa Cruz Biotechnology. Cells were transfected with 50 nM of either the targeting or control siRNA using HiPerFect Transfection Reagent (Qiagen, Hilden, Germany) for 24 h. The knockdown efficiency of siRNAs was confirmed by Western blot analysis.
THP-1 cells were pre-incubated with PLAG (100 μg/ml) for 1 hour and then stimulated with MSU crystal (400 μg/ml). After 15, 30, 60 min, cells were harvested. […] For flow cytometric analysis, cells were washed with 1% FBS/PBS and analyzed with a FACSVerse flow cytometer (BD Biosciences). […]

Data set [3] is described as follows: Cumulative excretion of radioactivity after single oral administration. The class given is in vivo, rats. As for the experimental part: Excretion of PLAG at a single oral administration of 50 mg/kg BW to rats was examined in Mitsubishi Chemical Medicine Corporation (Japan) by radioactivity analysis. After oral administration of a single dose of 50 mg/kg, animals were individually accommodated in glass metabolic cages (Metabolica Model MC-CO2). Spontaneously excreted urine, feces, and radioactive molecules expired from each animal were collected. Sampling time points are 0-24, 24-48, 48-72 hours after administration. Then radioactivity and the excretion ratios and amount of radioactivity were determined. Radioactivity was measured by LSC (Tri-Carb 2300TR. Perkin Elmer, Inc) with the tSIE (transformed spectral index of external standard) method for the quenching correction.

The test system of the next data set is NETosis of dHL-60 cells. The experiment in a line: IMQ-induced NETosis, confocal microscopy of DNA-elastase complex. In kind it is cell-based, human. Particulars: PLAG 10 or 100 μg/mL, dose-dependent. The protocol: HL-60 cells were differentiated (dHL-60) to neutrophil-like cells in the culture medium with the addition of 1.3% DMSO (Sigma) for 5 days in a humidified atmosphere at 37° C. without changing the medium. dHL-60 cells (2×10^5 cells/mL) were loaded with 5 μM fluo-4 AM for 45 minutes and washed three times with warmed modified (37° C.) HBSS buffer (137.93 mM NaCl, 5.33 mM KCl, 2 mM CaCl2, 1 mM MgSO4, 2.38 mM HEPES, 5.5 mM glucose, pH to 7.4). The cells were seeded on black-walled 96-well plates and then treated with vehicle (0.1% DMSO), imiquimod (10 μg/mL) or PLAG (10 or 100 μg/mL) just before measurement. Baseline fluorescence was measured before treatment, and fluorescence was read every 20 s for 700 s using an excitation wavelength of 494 nm, an emission wavelength of 516 nm in a FlexStation 3 microplate reader (Molecular Devices). Fluorescence values were reported as F/Fo according to the calculation: [ΔF=(494 nm)f/(516 nm)f−(494 nm)0/(516 nm)0]. […]
HL-60 cells were harvested and detected extracellular DNA-elastase complex by using ELISA and visualized by using confocal microscopy (×400) or scanning electron microscope (SEM) (×8000). HL-60 cells were washed with PBS and mounted in DAPI-containing fluorescence microscopy mounting medium (Invitrogen). Samples were analyzed with a laser scanning confocal microscope (Carl Zeiss, Oberkochen, Germany).

On to `CCCCC/C=C\C/C=C\CCCCCCCC(=O)OC(COC(C)=O)COC(=O)CCCCCCCCCCCCCCC` (racemic) [PLAG, 1-palmitoyl-2-linoleoyl-3-acetylglycerol], for which, in data set [1] (15 minutes to 1 hour), the “radioactivity in stomach and intestinal tract incl. luminal contents” value is “high levels”. Moreover, in data set [1] (8 hours), the “radioactivity in the liver and brown fat tissues” value is listed as “Moderate levels”; the “radioactivity in the luminal side of the stomach” value is on record as “high levels”. For the same compound, the “radioactivity in the liver” value in data set [1] (24 hours) is “low levels”. Also, the “radioactivity in other tissues” value in data set [1] (any sampling time point) is on record as “not different from background level”. Also, the “radioactivity in the liver” value in data set [1] (up to 1 hour) is reported as “Low levels”. In data set [2] (MSU/PLAG treated cells), the P2Y6 endocytosis initiates entry is “about 10 minutes” and the “P2Y6 returned to the surface” value is on record as “about 30 minutes”. Moreover, the “promotion of P2Y6 receptor endocytosis (flow cytometry)” value in data set [2] (control and CD36 silenced cells) is on record as “still observed”. Besides, in data set [3] (50 mg/kg oral, by 24 hours), the “dosed radioactivity excreted into expired air” value is listed as 71.0%, the “dosed radioactivity excreted into feces” value worked out at 3.0%, the “dosed radioactivity excreted into urine” value was found to be 1.9% and the “total recovery of radioactivity” value is on record as 75.9%. In data set [3] (within 24 hours), the “PLAG administered degraded and metabolized” value is on record as “approximately 76%”. Further, the “IMQ-induced NETosis” value in the data set on NETosis of dHL-60 cells is recorded as “promotes”.
